Measured values taken from patent EP1143981B1, “USE OF N-GLYCOLNEURAMINIC ACID AND ITS DERIVATIVES FOR THE MANUFACTURE OF A MEDICAMENT FOR THE TREATMENT OF HIV INFECTIONS” (Glukor, Inc., priority 1998, dated 2000).
Several values for one entry are separate records, joined by “and”; a condition that tells them apart may be missing. Equal values may be shown once.

Experiments:
PBMCs = assay type: cell-based; details: human
Protocol: Fresh human PBMCs were isolated from voluntary Red Cross donors, seronegative for HIV and HBV. Leukophoresed blood was diluted 1:1 with Dulbecco's PBS, layered over 14 mL of Ficoll-Hypaque density gradient in a 50mL centrifuge and then centrifuged for 30 minutes at 600 x g. Banded PBMCs were gently aspirated from the resulting interface and subsequently washed twice with PBS by low speed centrifugation. […] PBMCs were maintained in this medium at a concentration of 1-2 x 10^6 cells/mL with bi-weekly medium changes until used in the assay. […]
Tetrazolium dye staining of screening plates: After 6 days of incubation (37°C with 5% CO2), the test plates were analyzed by staining with the tetrazolium dye XTT (2,3-b (2-methoxy-4-nitro-5-sulfophenyl)-2H-tetrazolium -5-carboxanilide). XTT-tetrazolium is metabolized by mitochondrial enzymes of metabolically active cells to a soluble formazan product, allowing the rapid quantitative analysis of the inhibition of HIV-induced cell killing by anti-HIV compounds. […] Plates were sealed with adhesive plate sealers and inverted several times to mix the soluble formazan product and the plate was read spectrophotometrically at 450nm with a Molecular Devices Vmax plate reader. Indices such as %CPE Reduction (cytopathic effects), %Cell Viability, IC25, IC50, IC95, TC25, TC50, and TC95 and other indices were calculated. […]

HIV-1ROJO = experiment: Reverse transcriptase activity assay in infected PBMCs; assay type: cell-based; details: for RT activity % VC: % virus control; for RT Activity (cpm) / Reverse Transcriptase (RT) Activity (cpm): single samples; for IC50: Human immunodeficiency virus 1, PBMC
From the text: PBMCs were isolated from fresh human blood obtained commercially from the American Red Cross (Baltimore, Maryland). CEM-SS cells were obtained from the NIH AIDS reagent program. The low passage, lymphotropic clinical isolate ROJO was obtained from a pediatric patient attending the AIDS Clinic at the University of Alabama at Birmingham. Phytohemagglutinin (PHA-P) was obtained from Sigma Chemical Co. (St. Louis, MO) and recombinant IL-2 was obtained from Amgen (San Francisco, CA). As a positive control for antiviral assays, AZT was obtained from the NIH AIDS Reagent Program. HIV-1RF also was obtained from the NIH AIDS reagent program. Tritiated thymidine triphosphate was obtained from New England Nuclear (Boston, MA). Each plate in each experiment contained cell control wells (cells only), virus control wells (cells plus virus), drug toxicity control wells (cells plus drug only), drug colorimetric control wells (drug only) as well as experimental wells (drug plus cells plus virus).
Fresh human PBMCs were isolated from voluntary Red Cross donors, seronegative for HIV and HBV. Leukophoresed blood was diluted 1:1 with Dulbecco's PBS, layered over 14 mL of Ficoll-Hypaque density gradient in a 50mL centrifuge and then centrifuged for 30 minutes at 600 x g. Banded PBMCs were gently aspirated from the resulting interface and subsequently washed twice with PBS by low speed centrifugation. […] PBMCs were maintained in this medium at a concentration of 1-2 x 10^6 cells/mL with bi-weekly medium changes until used in the assay.
For the standard PBMC assay, PHA-P stimulated cells from at least two normal donors were pooled, diluted in fresh medium to a final concentration of 1 x 10^6 cells/mL, and plated in the interior wells of a 96 well round bottom microplate at 50 µL/well (5 x 10^4 cells/well). Test drug dilutions were prepared at a 2X concentration in microfuge tubes and 100 µL of each concentration was placed in appropriate wells in a standard format. A predetermined dilution of virus stock was placed in each test well (50 µL, final MOI ≅ 0.1). Wells with cells and virus alone were used for virus control. Separate plates were prepared identically without virus for drug cytotoxicity studies using an XTT assay system. The PBMC cultures were maintained for seven days following infection, at which time cell-free supernatant samples were collected and assayed for reverse transcriptase activity as described below.
Virus Preparation: Pre-tittered aliquots of HIV-1ROJO and HIV-1RF were removed from the freezer (-80°C) and thawed to room temperature in a biological safety cabinet. The virus was resuspended and diluted into tissue culture medium such that the amount of virus added to each well in a volume of 50 µL will be the amount determined to give complete cell killing at 6 days post-infection.
Reverse Transcriptase Activity Assay: A microtiter based reverse transcriptase (RT) reaction was utilized as described by Buckheit et al., (1991), AIDS Research and Human Retroviruses, 7:295-302. Tritiated thymidine triphosphate (^3H-TTP) was suspended in distilled H2O at 5 Ci/mL. Poly rA and oligo dT were prepared as a stock solution which was kept at -20°C. RT reaction buffer was prepared fresh on a daily basis and contained 125 µL 1M EGTA, 125 µL dH2O, 110 µL 10% SDS, 50 µL 1M Tris (pH 7.4), 50 µL 1M DTT, and 40 µL 1M MgCl2. These three solutions were mixed together in a ratio of 2 parts ^3H-TTP, 1 part poly rA:oligo dT, and 1 part reaction buffer. Ten microliters of this reaction mixture were placed in a round bottom microtiter plate and 15 µL of virus containing supernatant were added and mixed. The plate was incubated at 37°C in a water bath with a solid support to prevent submersion of the plate and incubated for 60 minutes.

[1] = 0.0001 mM, simultaneously exposed to drug and HIV
[2] = 0.00032 mM, 2-hour pretreatment
[3] = 0.00032 mM, simultaneously exposed to drug and HIV
[4] = 0.001 mM, simultaneously exposed to drug and HIV
[5] = 0.0032 mM, simultaneously exposed to drug and HIV
[6] = 0.01 mM, simultaneously exposed to drug and HIV
[7] = 0.032 mM, simultaneously exposed to drug and HIV
[8] = 0.1 mM, simultaneously exposed to drug and HIV
[9] = 0.32 mM, simultaneously exposed to drug and HIV
[10] = 1 mM, simultaneously exposed to drug and HIV

O=C(CO)N[C@H]1[C@H]([C@H](O)[C@H](O)CO)OC(O)(C(=O)O)C[C@@H]1O (some centres unmarked) [N-glycolylneuraminic acid]
CC50 (PBMCs): > 1000 µM
Reverse Transcriptase (RT) Activity (cpm), Mean (HIV-1ROJO; 0.0001 mM, 2-hour pretreatment): 2763.7 cpm
RT activity % VC (HIV-1ROJO; 0.0001 mM, 2-hour pretreatment): 134.2%
RT Activity (cpm), Mean (HIV-1ROJO; [1]): 2348.3 cpm
RT activity % VC (HIV-1ROJO; [1]): 78.5%
RT Activity (cpm) (HIV-1ROJO; [1]): 2423.0 cpm and 2253.0 cpm and 2369.0 cpm
Reverse Transcriptase (RT) Activity (cpm), Mean (HIV-1ROJO; [2]): 2015.3 cpm
RT activity % VC (HIV-1ROJO; [2]): 97.8%
RT Activity (cpm), Mean (HIV-1ROJO; [3]): 2795.0 cpm
RT activity % VC (HIV-1ROJO; [3]): 93.4%
Reverse Transcriptase (RT) Activity (cpm), Mean (HIV-1ROJO; 0.001 mM, 2-hour pretreatment): 1867.0 cpm
RT activity % VC (HIV-1ROJO; 0.001 mM, 2-hour pretreatment): 90.6%
RT Activity (cpm), Mean (HIV-1ROJO; [4]): 3108.7 cpm
RT activity % VC (HIV-1ROJO; [4]): 103.9%
Reverse Transcriptase (RT) Activity (cpm), Mean (HIV-1ROJO; 0.0032 mM, 2-hour pretreatment): 2529.0 cpm
RT activity % VC (HIV-1ROJO; 0.0032 mM, 2-hour pretreatment): 122.8%
Reverse Transcriptase (RT) Activity (cpm) (HIV-1ROJO; 0.0032 mM, 2-hour pretreatment): 2381.0 cpm and 3368.0 cpm and 1838.0 cpm
RT Activity (cpm), Mean (HIV-1ROJO; [5]): 2892.7 cpm
RT activity % VC (HIV-1ROJO; [5]): 96.7%
Reverse Transcriptase (RT) Activity (cpm), Mean (HIV-1ROJO; 0.01 mM, 2-hour pretreatment): 951.3 cpm
RT activity % VC (HIV-1ROJO; 0.01 mM, 2-hour pretreatment): 46.2%
RT Activity (cpm), Mean (HIV-1ROJO; [6]): 2163.3 cpm
RT activity % VC (HIV-1ROJO; [6]): 72.3%
RT Activity (cpm) (HIV-1ROJO; [6]): 2284.0 cpm and 2280.0 cpm and 1926.0 cpm
Reverse Transcriptase (RT) Activity (cpm), Mean (HIV-1ROJO; 0.032 mM, 2-hour pretreatment): 561.7 cpm
RT activity % VC (HIV-1ROJO; 0.032 mM, 2-hour pretreatment): 27.3%
RT Activity (cpm), Mean (HIV-1ROJO; [7]): 1867.3 cpm
RT activity % VC (HIV-1ROJO; [7]): 62.4%
RT Activity (cpm) (HIV-1ROJO; [7]): 1814.0 cpm and 2094.0 cpm and 1694.0 cpm
Reverse Transcriptase (RT) Activity (cpm), Mean (HIV-1ROJO; 0.1 mM, 2-hour pretreatment): 459.0 cpm
RT activity % VC (HIV-1ROJO; 0.1 mM, 2-hour pretreatment): 22.3%
RT Activity (cpm), Mean (HIV-1ROJO; [8]): 906.3 cpm
RT activity % VC (HIV-1ROJO; [8]): 30.3%
Reverse Transcriptase (RT) Activity (cpm), Mean (HIV-1ROJO; 0.32 mM, 2-hour pretreatment): 146.7 cpm
RT activity % VC (HIV-1ROJO; 0.32 mM, 2-hour pretreatment): 7.1%
Reverse Transcriptase (RT) Activity (cpm) (HIV-1ROJO; 0.32 mM, 2-hour pretreatment): 196.0 cpm and 140.0 cpm and 104.0 cpm
RT Activity (cpm), Mean (HIV-1ROJO; [9]): 102.7 cpm
RT Activity (cpm) (HIV-1ROJO; [9]): 132.0 cpm and 108.0 cpm and 68.0 cpm
Reverse Transcriptase (RT) Activity (cpm), Mean (HIV-1ROJO; 1 mM, 2-hour pretreatment): 76.0 cpm
RT activity % VC (HIV-1ROJO; 1 mM, 2-hour pretreatment): 3.7%
Reverse Transcriptase (RT) Activity (cpm) (HIV-1ROJO; 1 mM, 2-hour pretreatment): 72.0 cpm and 68.0 cpm and 88.0 cpm
RT Activity (cpm), Mean (HIV-1ROJO; [10]): 204 cpm
RT activity % VC (HIV-1ROJO; [10]): 6.8%
IC50 (HIV-1ROJO; PBMCs, 2hr pretreatment): ~10 µM
IC50 (HIV-1ROJO; PBMCs, simultaneously exposed to drug and HIV, without a pretreatment): ~58 µM
TI (HIV-1ROJO; PBMCs, simultaneously exposed to drug and HIV): > 17.25
anti-HIV activity (HIV-1ROJO; PBMCs, with and without a 2hr pretreatment of the cells): active
